Patent US20240181081A1, “Compositions and Methods for Treatment of Myotonic Dystrophy Type 1 with CRISPR/SACAS9” (Vertex Pharmaceuticals Incorporated, priority 2021, published 2024)

Assays:
[1] = tested on: CTG repeat expansion in the 3′ UTR of human DMPK gene; experiment: DOUBLE-cut screening: CTG repeat excision by loss-of-signal ddPCR in primary DM1 patient myoblasts; format: cell-based; details: sgRNA pair RNP, mean of upstream and downstream ddPCR assays; for % of CTG repeat excision efficiency by ddPCR (DNA-PKi): 3 μM Compound 6 for 48 hrs; for % of CTG repeat excision efficiency by ddPCR (Vehicle): DMSO 48 hrs
Description: (§1) RNPs were assembled with recombinant SaCas9 protein (Aldevron) and chemically modified sgRNAs (Synthego) at a ratio of 1:3 (protein:sgRNA). For SINGLE-cut screening, RNP complexes were assembled with 30 pmol of SaCas9 and 90 pmol of sgRNA in P5 Primary Cell Nucleofector Solution (Lonza). After incubation at room temperature for 20 minutes, 10 μL of RNP complex was mixed with two hundred thousand primary myoblasts resuspended in 10 μL of P5 Nucleofector Solution. For DOUBLE-cut screening, RNP complexes were first assembled for individual sgRNAs with 20 pmol of SaCas9 protein and 60 pmol of sgRNAs in 5 μL of P5 Nucleofector Solution. After incubation at room temperature for 20 minutes, the two RNP complexes (one for upstream sgRNA and one for downstream sgRNA) were mixed at 1:1 ratio and then further mixed with two hundred thousand primary myoblasts resuspended in 10 μL of P5 Nucleofector Solution.
(§2) The Nucleofector 96-well Shuttle System (Lonza) was used to deliver the SaCa9/sgRNA RNPs into primary DM1 patient myoblasts using the nucleofection program CM138. Following nucleofection, myoblasts from each well of nucleofection shuttle were split into six wells of the 96-well cell culture plate (Greiner, 655090) coated with matrigel. The first three wells were treated with DMSO for 48 hrs before changing to fresh myoblast growth medium, and the other three wells were treated with 3 μM of DNA-PKi Compound 6 for 48 hrs before changing to fresh myoblast growth medium. 72 hrs post nucleofection, two wells of DMSO-treated myoblasts and two wells of DNA-PKi-treated myoblasts from each nucleofection were harvested for genomic DNA extraction using the Kingfisher Flex purification system (Thermal Fisher), whereas one well of DMSO-treated myoblasts and one well of DNA-PKi-treated myoblasts were stained for RNA foci by FISH staining.
The primers and probes of ddPCR were designed using the online primer design software Primer3Plus (http://www.bioinformatics.nl/cgi-bin/primer3plus/primer3plus.cgi). The two Target primers/probe sets were used to detect CTG repeat excision, and the Reference primers/probe set was used to amplify a region located in Exon 1 of human DMPK gene and it served as a reference control for the Target sets. The 24 μL of ddPCR reaction consisted of 12 μL of Supermix for Probes (no dUTP) (Bio-Rad Laboratories), 1 μL of Reference primers mix (21.6 μM), 1 μL of Reference probe (6 μM), 1 μL of Target primers mix (21.6 μM), 1 μL of Target probe (6 μM), and 8 μL of sample genomic DNA. Droplets were generated using probe oil with the QX200 Droplet Generator (Bio-Rad Laboratories). Droplets were transferred to a 96-well PCR plate, sealed and cycled in a C1000 deep well Thermocycler (Bio-Rad Laboratories) under the following cycling protocol: 1 cycle at 95° C. for 10 min; 40 cycles of 94° C. for 30 sec, and 58° C. for 1 min; 1 cycle at 98° C. for 10 min (for enzyme inactivation). The cycled plate was then transferred and read in the FAM and HEX channels using the Bio-Rad QX200 Droplet Reader (Bio-Rad Laboratories). ddPCR analysis was performed with the Bio-Rad QuantaSoft Pro Software.
Next, DOUBLE-cut screening was performed to assess the efficiency of paired sgRNAs-induced CTG repeat excision and RNA foci reduction. 90 SaCas9 sgRNA pairs formed by one upstream sgRNA and one downstream sgRNA were assembled with recombinant SaCas9 protein into RNP complex and nucleofected into primary DM1 patient myoblasts. Nucleofected myoblasts were treated with either DMSO (vehicle) or 3 μM of Compound 6 (DNA-PKi) for 48 hrs. 72 hrs post nucleofection, myoblasts were subjected to either genomic DNA isolation or RNA foci staining.
One upstream and one downstream loss-of-signal droplet digital PCR (ddPCR) assays were used to determine the efficiency of CTG repeat excision. ddPCR signals would be abolished upon excision of the CTG repeat expansion in these loss-of-signal ddPCR assays. […]

[2] = tested on: CUG RNA foci in primary DM1 patient myoblasts; experiment: DOUBLE-cut screening: FISH staining of RNA foci in primary DM1 patient myoblasts; format: cell-based, human; details: sgRNA pair RNP, 72 hrs post nucleofection; for % of CUG foci free nuclei (DNA-PKi): 3 μM Compound 6 for 48 hrs; for % of CUG foci free nuclei (Vehicle): DMSO 48 hrs
Description: as §1, §2
Primary myoblasts were fixed for 15 min with 4% paraformaldehyde (PFA) and washed five times with 1×PBS for 10 min each at room temperature. Before staining, cells were permeabilized with 0.5% triton X-100 in 1×PBS for 5 min at room temperature, and then washed with 30% formamide and 2× saline-sodium citrate (SSC) mixture for 10 min at room temperature. Cells were then stained with 1 ng/μL of Cy3-PNA(CAG) 5 probe (PNA Bio, F5001) diluted in 30% formamide, 2×SSC, 2 μg/mL BSA, 66 μg/mL yeast tRNA, and 2 mM vanadyl complex for 15 min at 80° C. Following probe staining, cells were then washed in 30% formamide and 2×SSC mixture for 30 min at 42° C., then washed in 30% formamide and 2×SSC mixture for 30 min at 37° C., and then washed in 1×SSC solution for 10 min at room temperature, and finally washed in 1×PBS for 10 min at room temperature. Cells were next stained with anti-MBNL1 antibody (Santa Cruz, 3A4) diluted in 1% bovine serum albumin (BSA) for overnight at 4° C., and washed twice with 1×PBS for 10 min each at room temperature. Cells were then incubated with the secondary antibody goat […] Alexa 647 (Thermo Fisher, A32728) diluted in 1% BSA for 1 hr at room temperature, and washed twice with 1×PBS for 10 min each at room temperature. Next, cells were stained with Hoechst solution (Thermo Fisher, H3569) at 0.1 mg/ml for 5 min, and washed once with 1×PBS for 5 min. PBS was aspirated and fresh 100 μl of fresh PBS was added to each well. High-throughput acquisition of images was completed with the ImageXpress Micro Confocal High-Content Imaging System (Molecular Devices). RNA foci quantifications were accomplished with a customized analysis module of the MetaXpress program (Molecular Devices).
Next, DOUBLE-cut screening was performed to assess the efficiency of paired sgRNAs-induced CTG repeat excision and RNA foci reduction. 90 SaCas9 sgRNA pairs formed by one upstream sgRNA and one downstream sgRNA were assembled with recombinant SaCas9 protein into RNP complex and nucleofected into primary DM1 patient myoblasts. […]

Substance	% of CTG repeat excision efficiency by ddPCR (DNA-PKi) [1]	% of CTG repeat excision efficiency by ddPCR (Vehicle) [1]	% of CUG foci free nuclei (DNA-PKi) [2]	% of CUG foci free nuclei (Vehicle) [2]
SaU2 + SaD12: SaCas9 sgRNA pair, SEQ ID NOs: 2 and 20 (guide 1 ACTCAGTCTTCCAACGGGGCCC; guide 2 TCAGTGCATCCAAAACGTGGAT; listed as DNA, chemistry not fully specified)	58.68%	36.47%	83.77%	76.56%
SaU4 + SaD15: SaCas9 sgRNA pair, SEQ ID NOs: 4 and 23 (guide 1 CCAGTTCACAACCGCTCCGAGC; guide 2 GACAATAAATACCGAGGAATGT; listed as DNA, chemistry not fully specified)	58.99%	39.70%	85.73%	79.84%
SaU3 + SaD5: SaCas9 sgRNA pair SaU3 and SaD5; table prints SEQ ID NOS: 2 and 13 (guide 1 ACTCCGGGGCCCCGTTGGAAGA; guide 2 GGGTTTGGCAAAAGCAAATTTC; listed as DNA, chemistry not fully specified)	60.74%	43.61%	84.63%	73.56%
SaU8 +SaD20: SaCas9 sgRNA pair, SEQ ID NOs: 8 and 28 (guide 1 GGCTCGAAGGGTCCTTGTAGCC; guide 2 AGATGGAGGGCCTTTTATTCGC; listed as DNA, chemistry not fully specified)	62.59%	39.72%	81.21%	71.20%
SaU1 + SaD20: SaCas9 sgRNA pair, SEQ ID NOs: 1 and 28 (guide 1 GCCCCGGAGTCGAAGACAGTTC; guide 2 AGATGGAGGGCCTTTTATTCGC; listed as DNA, chemistry not fully specified)	61.37%	39.94%	83.73%	69.61%
SaU2 + SaD10: SaCas9 sgRNA pair, SEQ ID NOs: 2 and 18 (guide 1 ACTCAGTCTTCCAACGGGGCCC; guide 2 TTGGGGGTCCTGTAGCCTGTCA; listed as DNA, chemistry not fully specified)	66.52%	38.02%	82.97%	75.56%
SaU8 +SaD13: SaCas9 sgRNA pair, SEQ ID NOs: 8 and 21 (guide 1 GGCTCGAAGGGTCCTTGTAGCC; guide 2 CCCAACAACCCCAATCCACGTT; listed as DNA, chemistry not fully specified)	51.64%	29.46%	77.05%	43.66%
SaU7 + SaD18: SaCas9 sgRNA pair, SEQ ID NOs: 7 and 26 (guide 1 CGCGGCCGGCGAACGGGGCTCG; guide 2 GGGCCTTTTATTCGCGAGGGTC; listed as DNA, chemistry not fully specified)	48.08%	19.71%	73.07%	23.22%
SaU7 + SaD7: SaCas9 sgRNA pair, SEQ ID NOs: 7 and 15 (guide 1 CGCGGCCGGCGAACGGGGCTCG; guide 2 GGGGCGCGGGATCCCCGAAAAA; listed as DNA, chemistry not fully specified)	64.88%	32.55%	85.03%	41.68%
SaU4 + SaD11: SaCas9 sgRNA pair, SEQ ID NOs: 4 and 19 (guide 1 CCAGTTCACAACCGCTCCGAGC; guide 2 CAAAACGTGGATTGGGGTTGTT; listed as DNA, chemistry not fully specified)	54.55%	36.98%	78.29%	58.71%
SaU2 + SaD15: SaCas9 sgRNA pair, SEQ ID NOs: 2 and 23 (guide 1 ACTCAGTCTTCCAACGGGGCCC; guide 2 GACAATAAATACCGAGGAATGT; listed as DNA, chemistry not fully specified)	60.64%	41.70%	85.85%	76.57%
SaU1 + SaD4: SaCas9 sgRNA pair, SEQ ID NOs: 1 and 12 (guide 1 GCCCCGGAGTCGAAGACAGTTC; guide 2 ACTTTGCGAACCAACGATAGGT; listed as DNA, chemistry not fully specified)	61.00%	41.92%	87.86%	81.45%
SaU7 + SaD2: SaCas9 sgRNA pair, SEQ ID NOs: 7 and 10 (guide 1 CGCGGCCGGCGAACGGGGCTCG; guide 2 TCGGCCAGGCTGAGGCCCTGAC; listed as DNA, chemistry not fully specified)	–	–	81.28%	70.29%
SaU8 + SaD2: SaCas9 sgRNA pair, SEQ ID NOs: 8 and 10 (guide 1 GGCTCGAAGGGTCCTTGTAGCC; guide 2 TCGGCCAGGCTGAGGCCCTGAC; listed as DNA, chemistry not fully specified)	–	–	82.91%	76.39%
